# Results from US20100285959A1, “HERBICIDAL MIXTURES” (priority 2006, published 2010).
# How the values were obtained:
# [1] = system: ducksalad (HETLI); test: Test 32 greenhouse, simulated flooded rice culture; type: in vivo, Heteranthera limosa; parameters: scale not given here; conditions: postemergence to flood, 21 DAA
# Experimental: A greenhouse trial was conducted to evaluate the effects of Compound 1 and isoxadifen-ethyl at different ratios in simulated flooded rice culture. Plastic pots (11-cm diameter) were partially filled with non-sterilized Tama silt loam soil containing a 15:57:28 ratio of sand, silt and clay and 2.9% organic matter. Seeds of Heteranthera limosa (ducksalad; HETLI), Cyperus difformis (smallflower umbrella sedge; CYPDI), one stand of Echinochloa crus-galli (barnyardgrass; ECHCG), and one stand of four rice seedlings (Oryza sativa cv. ‘M202’; ORYSA) were planted into a single 11-cm diameter pot for each rate and mixture of rates. To obtain this planting, C. difformis and H. limosa seeds were planted separately on the surface soil layer at particular locations within each pot. Water levels were brought to a puddled condition above the soil surface directly after planting. E. crus-galli and rice seeds were planted in cavity trays in the silt loam soil and transplanted at the 1.5 and 2.0 leaf stage, respectively. E. crus-galli and rice plants were transplanted to about 2-cm depth by transferring plugs from the cavity trays. Plantings were sequential so that these plant species all reached the 2.0- to 2.5-leaf stage in the 11-cm diameter pot at time of treatment. Plantings were established and maintained in a greenhouse with day and night temperatures of about 29.5 and 26.7° C. respectively; supplemental balanced lighting was provided to maintain a 16-hour photoperiod. Pots were fertilized periodically with a 200 ppm solution of commercial Scotts Peters® Professional® General Purpose 20-20-20 Water Soluble Fertilizer, amended to 10 ppm with a commercial iron-chelate micronutrient fertilizer. The solution was supplied at time of watering via a liquid fertilizer injector.
# At treatment time, test pots were flooded to 3 cm above the soil surface and maintained at that water depth for the duration of the test. Chemical treatments were formulated in acetone and applied directly to the paddy water (i.e., postemergence to flood). Make-up volumes of acetone were added to ensure that all pots were treated with a consistent volume. Test pots were maintained in the greenhouse. A randomized complete block design was employed. Five replicates of each treatment, alone and in mixture, were used. Each species was visually evaluated for treatment effects by comparing those treated to untreated controls and rated for plant response after 21 days.
# [2] = system: wild oat (AVEFA); test: Test 4 field trial, postemergence; type: in vivo, Avena fatua; parameters: scale not given here
# Experimental: (§1) A field trial was conducted to evaluate the effects of mixtures of Compound 2 with commercial herbicides on spring wheat (TRZAS, Triticum aestivum L.) and several weed species. Wheat seeds (cv. ‘AC Intrepid’) were planted in late spring season, 3.8 cm deep in a loam soil having 2.7% organic matter and a pH of 7. Plots were 6 m long by 2.5 m wide. The field was managed using no-till practices. The plots were arranged in a randomized complete block design with each treatment being replicated four times. Treatments were applied postemergence 25 days after planting using a backpack sprayer delivering a spray volume of 55 L/ha using a pressure of 276 kPa. […] Compound 2 and clodinafop treatments, alone and in combination, also included a surfactant. Weed species present in the experimental plots in sufficient quantity to be evaluated included wild oat (AVEFA, Avena fatua L.), common lambsquarters (CHEAL, Chenopodium album L.), kochia (KCHSC, Kochia scoparia (L.) Schrad.), wild buckwheat (POLCO, Polygonum convolvulus L.), Russian thistle (SASKR, Salsola kali L. ssp. ruthenica (Iljin) Soo), and field pennycress (THLAR, Thlaspi arvense L.). […] Common lambsquarters was evaluated only at 14 days after application. […] Results are the means of the four replicates.
# [3] = system: field pennycress (THLAR); test: Test 4 field trial, postemergence; type: in vivo, Thlaspi arvense; parameters: scale not given here
# Experimental: as §1
# [4] = system: common lambsquarters (CHEAL); test: Test 24 growth chamber, postemergence; type: in vivo, Chenopodium album; conditions: 17 DAA
# Experimental: (§2) Plants were treated postemergence at the 2-4 leaf growth stage, and each treatment was replicated three times. […] Plants were watered as needed. […] Results for barley and wheat are the means across varieties of the three replicates, and results for the weeds are the means of the three replicates.
# [5] = system: common chickweed (STEME); test: Test 24 growth chamber, postemergence; type: in vivo, Stellaria media; conditions: 17 DAA
# Experimental: as §2
# [6] = system: Pennsylvania smartweed (POLPY); test: Test 26 field trial, postemergence; type: in vivo, Polygonum pensylvanicum
# Excerpt: Corn seeds (hybrid ‘Pioneer 31G96’) were planted in mid spring season, 3.8 cm deep in a silt loam soil having 2% organic matter and a pH of 6.6. Plots were 6.1 m long by 3.0 m wide with rows spaced 76 cm apart. Seeds were spaced 15 cm apart within the rows. The field was managed using conventional tillage practices. […] All treatments also included a surfactant. […] Some of the weed species could not be evaluated at every timing. […] Results are the means of the three replicates.
# [7] = system: wheat (TRZAW); test: Test 28 greenhouse, post- and preemergence; type: in vivo, Triticum aestivum; conditions: 26 DAA
# Experimental: (§3) A greenhouse test was conducted to evaluate the effects on the plant species corn (ZEAMD, Zea mays ssp. indentata), sorghum (SORVU, Sorghum vulgare L.), dry-seeded rice (ORYSA, Oryza sativa L.), wheat (TRZAW, Triticum aestivum L.), ivyleaf morningglory (IPOHE, Ipomoea hederacea (L.) JACQ.), and barnyardgrass (ECHCG, Echinochloa crus-galli (L.) P. BEAUV.), of mixtures of Compound 2 with isoxadifen-ethyl. Corn, sorghum, rice, wheat, ivyleaf morningglory and barnyardgrass seeds were planted in RediEarth, a commercial potting medium. […] Corn plants were treated postemergence at the V2 growth stage, and sorghum, rice, wheat, ivyleaf morningglory, and barnyardgrass plants were treated postemergence at the 3-leaf stage. […] Each treatment was replicated three times. […] Plants were watered as needed.
# [8] = system: ivyleaf morningglory (IPOHE); test: Test 28 greenhouse, postemergence; type: in vivo, Ipomoea hederacea; conditions: 26 DAA
# Experimental: as §3
# [9] = 14 DAA, Cpd 2 60 g a.i./ha alone or with clodinafop 56 or fenoxaprop 90
# [10] = 35 DAA, Cpd 2 30 g a.i./ha alone or with clodinafop 56 or fenoxaprop 90
smiles,measurement,setting,value
"Nc1nc(C2CC2)nc(C(=O)O)c1Cl [Compound 1, 6-amino-5-chloro-2-cyclopropyl-4-pyrimidinecarboxylic acid]",HETLI Obs,[1]; Cpd 1 31.25 g a.i./ha,38
same,HETLI Obs,[1]; Cpd 1 62.5 g a.i./ha,76
same,HETLI Obs,[1]; Cpd 1 125 g a.i./ha,95
"COC(=O)c1nc(C2CC2)nc(N)c1Cl [Compound 2, methyl 6-amino-5-chloro-2-cyclopropyl-4-pyrimidinecarboxylate]",AVEFA Obs,"[2]; 14 DAA, Cpd 2 30 g a.i./ha alone or with clodinafop 56 or fenoxaprop 90",0
same,AVEFA Obs,[2]; [9],0
same,AVEFA Obs,[2]; [10],0
same,AVEFA Obs,"[2]; 35 DAA, Cpd 2 60 g a.i./ha alone or with clodinafop 56 or fenoxaprop 90",0
same,AVEFA Obs,"[2]; 55 DAA, Cpd 2 30 g a.i./ha alone or with clodinafop 56 or fenoxaprop 90",0
same,AVEFA Obs,"[2]; 55 DAA, Cpd 2 60 g a.i./ha alone or with clodinafop 56 or fenoxaprop 90",0
same,THLAR Obs,"[3]; 14 DAA, Cpd 2 30 g a.i./ha alone or with fenoxaprop 90",0
same,THLAR Obs,[3]; [9],0
same,THLAR Obs,[3]; [10],0
same,THLAR Obs,"[3]; 35 DAA, Cpd 2 60 g a.i./ha alone or with fenoxaprop 90",8
same,CHEAL Obs (scale 0 to 100),[4]; Cpd 2 4 g a.i./ha,45
same,CHEAL Obs (scale 0 to 100),[4]; Cpd 2 8 g a.i./ha,60
same,CHEAL Obs (scale 0 to 100),[4]; Cpd 2 16 g a.i./ha,73
same,STEME Obs (scale 0 to 100),[5]; Cpd 2 4 g a.i./ha,47
same,STEME Obs (scale 0 to 100),[5]; Cpd 2 8 g a.i./ha,63
same,STEME Obs (scale 0 to 100),[5]; Cpd 2 16 g a.i./ha,67
same,POLPY Obs,"[6]; 14 DAA, 60 g a.i./ha",100
same,POLPY Obs,"[6]; 28 DAA, 30 g a.i./ha",20
same,POLPY Obs,"[6]; 28 DAA, 45 g a.i./ha",62
same,POLPY Obs,"[6]; 28 DAA, 60 g a.i./ha",75
same,TRZAW Obs,"[7]; postemergence, Cpd 2 32 g a.i./ha",80%
same,TRZAW Obs,"[7]; postemergence, Cpd 2 64 g a.i./ha",90%
same,TRZAW Obs,"[7]; preemergence, Cpd 2 32 g a.i./ha",0%
same,TRZAW Obs,"[7]; preemergence, Cpd 2 64 g a.i./ha",27%
same,IPOHE Obs,[8]; Cpd 2 32 g a.i./ha,100
same,IPOHE Obs,[8]; Cpd 2 64 g a.i./ha,100
